For the assay, the target named is T1, Alpha-amylase 1A (Homo sapiens) (UniProt P0DUB6).
T1 sequence (whole entry): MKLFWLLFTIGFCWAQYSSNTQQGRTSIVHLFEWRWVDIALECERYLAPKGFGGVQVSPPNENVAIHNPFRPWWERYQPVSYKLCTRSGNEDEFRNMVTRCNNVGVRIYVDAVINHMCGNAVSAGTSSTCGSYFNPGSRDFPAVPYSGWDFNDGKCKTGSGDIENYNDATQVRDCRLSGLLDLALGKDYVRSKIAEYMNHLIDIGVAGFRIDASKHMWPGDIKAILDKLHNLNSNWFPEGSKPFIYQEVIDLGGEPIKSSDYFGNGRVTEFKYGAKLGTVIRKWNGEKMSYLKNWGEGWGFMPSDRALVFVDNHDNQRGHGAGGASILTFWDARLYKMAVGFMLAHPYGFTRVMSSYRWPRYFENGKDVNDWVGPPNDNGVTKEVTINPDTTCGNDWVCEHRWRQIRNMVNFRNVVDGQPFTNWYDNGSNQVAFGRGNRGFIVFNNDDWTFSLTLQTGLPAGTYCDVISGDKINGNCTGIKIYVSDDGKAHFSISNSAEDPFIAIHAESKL
The assay can be described thus: Activity of human saliva alpha-amylase assessed as decrease in fluorescence intensity measured for every 3 mins for 30 mins by FRET analysis.

Each structure is given as a SMILES string. Activity calls are given as the source filed them. The calls are words filed in the database; no cut-off is given here.

With `CN(C)c1cccc2c(S(=O)(=O)NCCSCCCCCS[C@@H]3O[C@H](CO)[C@@H](O[C@H]4O[C@H](COCc5ccc6ccccc6c5)[C@@H](O)[C@H](O)[C@H]4O)[C@H](O)[C@H]3O)cccc12`, the outcome was inactive.

For the molecule `CN(C)c1cccc2c(S(=O)(=O)NCCSCCCCCS[C@@H]3O[C@H](CO)[C@@H](O[C@H]4O[C@H](CO)[C@@H](O[C@H]5O[C@H](COCc6ccc7ccccc7c6)[C@@H](O)[C@H](O)[C@H]5O)[C@H](O)[C@H]4O)[C@H](O)[C@H]3O)cccc12`, the result was inactive.

Take `CN(C)c1cccc2c(S(=O)(=O)NCCSCCCCCS[C@@H]3O[C@H](CO)[C@@H](O[C@H]4O[C@H](CO)[C@@H](O[C@H]5O[C@H](CO)[C@@H](O[C@H]6O[C@H](CO)[C@@H](O[C@H]7O[C@H](CO)[C@@H](O[C@H]8O[C@H](COCc9ccc%10ccccc%10c9)[C@@H](O)[C@H](O)[C@H]8O)[C@H](O)[C@H]7O)[C@H](O)[C@H]6O)[C@H](O)[C@H]5O)[C@H](O)[C@H]4O)[C@H](O)[C@H]3O)cccc12`: the outcome was Active.

As to `CN(C)c1cccc2c(S(=O)(=O)NCCSCCCCCS[C@@H]3O[C@H](CO)[C@@H](O[C@H]4O[C@H](CO)[C@@H](O[C@H]5O[C@H](CO)[C@@H](O[C@H]6O[C@H](CO)[C@@H](O[C@H]7O[C@H](CO)[C@@H](O[C@H]8O[C@H](CO)[C@@H](O[C@H]9O[C@H](COCc%10ccc%11ccccc%11c%10)[C@@H](O)[C@H](O)[C@H]9O)[C@H](O)[C@H]8O)[C@H](O)[C@H]7O)[C@H](O)[C@H]6O)[C@H](O)[C@H]5O)[C@H](O)[C@H]4O)[C@H](O)[C@H]3O)cccc12`, the outcome was Active.

`CN(C)c1cccc2c(S(=O)(=O)NCCSCCCCCS[C@@H]3O[C@H](CO)[C@@H](O[C@H]4O[C@H](CO)[C@@H](O[C@H]5O[C@H](CO)[C@@H](O[C@H]6O[C@H](COCc7ccc8ccccc8c7)[C@@H](O)[C@H](O)[C@H]6O)[C@H](O)[C@H]5O)[C@H](O)[C@H]4O)[C@H](O)[C@H]3O)cccc12`: the outcome was Active.

`CN(C)c1cccc2c(S(=O)(=O)NCCSCCCCCS[C@@H]3O[C@H](CO)[C@@H](O[C@H]4O[C@H](CO)[C@@H](O[C@H]5O[C@H](CO)[C@@H](O[C@H]6O[C@H](CO)[C@@H](O[C@H]7O[C@H](COCc8ccc9ccccc9c8)[C@@H](O)[C@H](O)[C@H]7O)[C@H](O)[C@H]6O)[C@H](O)[C@H]5O)[C@H](O)[C@H]4O)[C@H](O)[C@H]3O)cccc12`: the result was Active.

For the origin of these results see ChEMBL document CHEMBL1933022, “Synthetic studies of bi-fluorescence-labeled maltooligosaccharides as substrates for α-amylase on the basis of fluorescence resonance energy transfer (FRET)” (Bioorg Med Chem, 2012).
